Earlier results in US20140271903A1, “USE OF THERMO-SENSITIVE GEL FOR CONTROLLED DELIVERY OF ALK-5 INHIBITORS TO THE EYE AND RELATED METHODS” (NORTHEAST OHIO MEDICAL UNIVERSITY, priority 2013, published 2014).

What was measured:
[1] = tested on: rabbit subconjunctival fibroblasts
[2] = tested on: rabbit subconjunctival fibroblasts; details: cultured rabbit subconjunctival fibroblasts

| SMILES | bleb survival (in vivo rabbit GFS model; recent rabbit studies, post-operative scarring after GFS) | cytotoxicity and cell death versus antimetabolites (5-FU, MMC) [1] | bleb survival period compared to MMC (in vivo rabbit GFS model; in vivo rabbit GFS model) | period of filtering bleb survival (in vivo rabbit GFS model; in vivo rabbit GFS model) | toxicity in GFS compared to MMC (in vivo rabbit GFS model; rabbit, in vivo) | downstream proteins of TGF-β: CTGF and a-SMA [2] |
| --- | --- | --- | --- | --- | --- | --- |
| CO[C@@]12[C@H](COC(N)=O)C3=C(C(=O)C(C)=C(N)C3=O)N1C[C@@H]1N[C@@H]12 [MMC, mitomycin-C] | around 30 days |  |  |  |  |  |
| Cc1cccc(-c2[nH]c(C(C)(C)C)nc2-c2ccc3c(c2)OCO3)n1 [SB-505124] |  | less cytotoxic and causing less cell death than antimetabolites | substantially shorter compared to MMC | extended the period of filtering bleb survival | substantially lower than that of MMC | marked reduction |
